Measurements reported in patent publication US10286022B2, “Medicinal composition of extract of seed of emblica officinalis and method of preparing the same” (priority 2013, dated 2019).

Tests used:
[1] = tested on: Triton WR 1339 induced dyslipidemia in Albino rats (Sprague Dawley strain); test: Hypolipidemic activity compared with other amla extracts, Triton WR 1339 model (Example 25); format: in vivo, rat
Protocol: Forty eight male Albino rats (Sprague Dawley strain) weighing approximate 250-300 gm were selected for the study. The animals were kept in the animal house maintained at temp 24±2° C., 65% relative humidity and 12 hr light/dark cycle. The rats were acclimatized for two weeks and during this period they had access to standard pellet diet and water ad libitum. After two weeks of acclimatization, all the rats were fasted overnight before injecting Triton WR 1339 (Tyloxapol) and administration of test extracts/standard. The animals were divided into twelve groups. Following treatment was given to overnight fasted rats: • Group I: Normal control (vehicle only). • Group II: Triton WR 1339 (300 mg/kg, intraperitoneal). • Group III: Triton WR 1339 (300 mg/kg, intraperitoneal) followed by ethyl acetate of methanol extract of amla seed prepared as per example 1 (2.5 mg/kg, per oral). • Group IV: Triton WR 1339 (300 mg/kg, intraperitoneal) followed by water part of methanol extract of amla seed prepared as per example 1 (2.5 mg/kg, per oral). • Group V: Triton WR 1339 (300 mg/kg, intraperitoneal) followed by ethyl acetate extract of amla seed prepared as per example 2 (2.5 mg/kg, per oral). • Group VI: Triton WR 1339 (300 mg/kg, intraperitoneal) followed by powder of dried amla seed prepared as per example 7 (2.5 mg/kg, per oral). • Group VII: Triton WR 1339 (300 mg/kg, intraperitoneal) followed by water extract of dried amla seed powder prepared as per example 8 (2.5 mg/kg, per oral). • Group VIII: Triton WR 1339 (300 mg/kg, intraperitoneal) followed by methanol extract of dried amla seed powder prepared as per example 9 (2.5 mg/kg, per oral). • Group IX: Triton WR 1339 (300 mg/kg, intraperitoneal) followed by powder of dried amla fruit prepared as per example 10 (2.5 mg/kg, per oral). • Group X: Triton WR 1339 (300 mg/kg, intraperitoneal) followed by water extract of dried Amla fruit powder prepared as per example 11 (2.5 mg/kg, per oral). • Group XI: Triton WR 1339 (300 mg/kg, intraperitoneal) followed by methanol extract of dried amla fruit powder prepared as per example 12 (2.5 mg/kg, per oral). • Group XII: Triton WR 1339 (300 mg/kg, intraperitoneal) followed by atorvastatin (2.5 mg/kg, per oral).
(§1) The animals were deprived of food for next 24 hours but had free access to water ad libitum. After 24 hour of drug treatment 2 ml blood samples were collected from the retro orbital plexus. The blood was allowed to clot and then centrifuged at 3000 rpm for 10 min and the serum was carefully drawn and collected into separate tubes. The serum was analyzed for total cholesterol, triglycerides, high density lipoproteins (HDL), low density lipoproteins (LDL) and very low density lipoproteins (VLDL) levels using auto-analyzer.

[2] = tested on: Triton WR 1339 induced dyslipidemia in Albino rats (Sprague Dawley strain); test: Single dosage study compared with other amla extracts, Triton WR 1339 model (Example 21); format: in vivo, rat
Protocol: Forty eight male Albino rats (Sprague Dawley strain) weighing approximate 250-300 gm were selected for the study. The animals were kept in the animal house maintained at temp 24±2° C., 65% relative humidity and 12 hr light/dark cycle. The rats were acclimatized for two weeks and during this period they had access to standard pellet diet and water ad libitum. After two weeks of acclimatization, all the rats were fasted overnight before injecting Triton WR 1339 (Tyloxapol) and administration of test extracts/standard. The animals were divided into eight groups. Following treatment was given to overnight fasted rats: • Group I: Normal control (vehicle only). • Group II: Triton WR 1339 (300 mg/kg, intraperitoneal). • Group III: Triton WR 1339 (300 mg/kg, intraperitoneal) followed by amla seed extract prepared as per example 1 (2.5 mg/kg, per oral). • Group IV: Triton WR 1339 (300 mg/kg, intraperitoneal) followed by amla extract prepared as per example 3 (2.5 mg/kg, per oral). • Group V: Triton WR 1339 (300 mg/kg, intraperitoneal) followed by amla extract prepared as per example 4 (2.5 mg/kg, per oral). • Group VI: Triton WR 1339 (300 mg/kg, intraperitoneal) followed by amla extract prepared as per example 5 (2.5 mg/kg, per oral). • Group VII: Triton WR 1339 (300 mg/kg, intraperitoneal) followed by amla extract prepared as per example 6 (2.5 mg/kg, per oral). • Group VIII: Triton WR 1339 (300 mg/kg, intraperitoneal) followed by atorvastatin (10 mg/kg, per oral).
as §1

cholesterol fed rabbits = test: Hypolipidemic activity in cholesterol fed rabbits (Example 23); format: in vivo, rabbit
Protocol: The amla seed extract as prepared in example 1 was evaluated for hypolipidemic activity in experimental rabbits. Male NZ white rabbits weighing 1.5-2.0 kg were used for the experiment. They were housed in a temperature-controlled room (25±2° C.) in clean stainless steel cages with ‘12 h light and 12 h dark’ cycles and fed with normal pellet diet and water ad libitum.
After the acclimatization period of 10 days, blood samples were collected from marginal ear vein of all the rabbits. The blood was allowed to clot and then centrifuged at 3000 rpm for 10 min and the serum was carefully drawn and collected into separate tubes. The serum was analyzed for total cholesterol, triglycerides, high density lipoproteins (HDL), low density lipoproteins (LDL) and very low density lipoproteins (VLDL) levels using auto-analyzer.
After taking baseline lipid profile the animals were divided into four groups having six animals in each group. Following treatment was given to the animals for the three months:
Blood samples were collected from all the rabbits after 3 months of treatment and serum was analyzed for lipid profile. After blood collection the animals were sacrificed after injecting pentobarbitone and aorta was dissected out, washed with saline and preserved in 10% formalin for histopathology. The sections were cut using microtome and stained with heamatoxylin & eosin dye and mounted on glass slides. The slides were observed under microscope and aortic intima media thickness (IMT) was measured by histomorphometry.

[3] = 24 h after Triton i.p. + 2.5 mg/kg p.o.
[4] = 24 h after Triton i.p. + 10 mg/kg p.o.
[5] = after 3 months cholesterol 100 mg/kg + 10 mg/kg

CC(C)c1c(C(=O)Nc2ccccc2)c(-c2ccccc2)c(-c2ccc(F)cc2)n1CC[C@@H](O)C[C@@H](O)CC(=O)O [Atorvastatin] was tested, and the “effect on cholesterol and triglyceride levels” value ([1]; 2.5 mg/kg p.o.) was “effective in lowering the cholesterol as well as triglyceride levels”, the “HDL After” value [1, 3] was 39.56 mg/dL and the “LDL After” value [1, 3] was 44.53 mg/dL. The “TC After” value [1, 3] was 123.14 mg/dL, the “TG After” value [1, 3] was 195.25 mg/dL and the “VLDL After” value [1, 3] was 39.05 mg/dL. The “HDL Before” value ([1]; baseline, 2.5 mg/kg p.o. group) was 36.54 mg/dL, the “LDL Before” value ([1]; baseline, 2.5 mg/kg p.o. group) was 57.99 mg/dL and the “TC Before” value ([1]; baseline, 2.5 mg/kg p.o. group) was 104.44 mg/dL. For the same compound, the “TG Before” value ([1]; baseline, 2.5 mg/kg p.o. group) was 49.54 mg/dL, the “VLDL Before” value ([1]; baseline, 2.5 mg/kg p.o. group) was 9.91 mg/dL and the “HDL After” value [2, 4] was 36.66 mg/dL. The “LDL After” value [2, 4] was 43.67 mg/dL, the “TC After” value [2, 4] was 122.54 mg/dL and the “TG After” value [2, 4] was 211.06 mg/dL. For the same compound, the “VLDL After” value [2, 4] was 42.21 mg/dL, the “HDL Before” value ([2]; baseline, 10 mg/kg p.o. group) was 39.51 mg/dL and the “LDL Before” value ([2]; baseline, 10 mg/kg p.o. group) was 51.00 mg/dL. The “TC Before” value ([2]; baseline, 10 mg/kg p.o. group) was 99.83 mg/dL, the “TG Before” value ([2]; baseline, 10 mg/kg p.o. group) was 46.59 mg/dL and the “VLDL Before” value ([2]; baseline, 10 mg/kg p.o. group) was 9.31 mg/dL. For the same compound, the “effect on cholesterol and triglyceride level” value ([2]; extracts 2.5 mg/kg, atorvastatin 10 mg/kg p.o.) was “less effective when compared with the amla seed extract”, the “effect on total cholesterol and triglyceride level” value (cholesterol fed rabbits; 10 mg/kg, 3 months, compared to untreated control group) was “decreased the total cholesterol and triglyceride level significantly” and the “HDL After” value (cholesterol fed rabbits; [5]) was 20.37 mg/dL. For the same compound, the “LDL After” value (cholesterol fed rabbits; [5]) was 82.8 mg/dL, the “TC After” value (cholesterol fed rabbits; [5]) was 118.9 mg/dL and the “TG After” value (cholesterol fed rabbits; [5]) was 78.67 mg/dL. The “VLDL After” value (cholesterol fed rabbits; [5]) was 15.73 mg/dL, the “Aortic intima media thickness” value (cholesterol fed rabbits; after 3 months cholesterol 100 mg/kg + 10 mg/kg, histomorphometry) was 112.36 μm and the “HDL Before” value (cholesterol fed rabbits; baseline, 10 mg/kg group) was 14.15 mg/dL. The “LDL Before” value (cholesterol fed rabbits; baseline, 10 mg/kg group) was 27.88 mg/dL, the “TC Before” value (cholesterol fed rabbits; baseline, 10 mg/kg group) was 53.69 mg/dL and the “TG Before” value (cholesterol fed rabbits; baseline, 10 mg/kg group) was 58.28 mg/dL. The “VLDL Before” value (cholesterol fed rabbits; baseline, 10 mg/kg group) was 11.66 mg/dL.
